This is an account of results in patent US20170128557A1, “Dendritic Cell Therapeutic Agent and Immunotherapeutic Agent Comprising Peptide Derived from Telomerase, and Therapeutic Methods Using the Same” (GemVax & KAEL Co., Ltd., priority 2015, published 2017).

In the assay the test system is T cells in the peripheral blood. In words: ELISPOT assay (IFN-γ / IL-4) on patients' peripheral blood T cells before/after dendritic cell immunotherapy. In kind it is cell-based, human. How it is done:
As described above, dendritic cells activate CTL to attack target cells to treat a disease. Accordingly, dendritic cells activated by peptides including PEP1 were prepared, administered to each individual, and subjected to an ELISPOT assay to observe an increase in T cell responses to each peptide in each individual.
The experiments were performed on four patients with different diseases (cancers), and a dendritic cell immunotherapy method is as follows. Mononuclear cells were collected from peripheral blood extracted from each patient and cultured. Immature dendritic cells differentiated in the mononuclear cell culture were subjected to antigen activation with tumor-associated antigen peptides including PEP1. When the dendritic cells became mature, antigen activation was carried out once more with the same peptides. The activated mature dendritic cells were separated and then administered to each patient.
More specifically, dendritic cells and NK cells used in treatment were prepared by proliferating mononuclear cells obtained from 25 ml of whole blood taken from a patient every two weeks, and differentiating the proliferated mononuclear cells into dendritic cells. That is, in this example, CD14+ mononuclear cells obtained from a peripheral blood vessel of the patient were cultured with IL-4 and GM-CFS for 6 days and proliferated, and then treated with a Streptococcus agent OK-432 for maturation. In addition, in the preparation of the dendritic cells, the dendritic cells were activated by WT1, MUC1 and other antigens.
According to cancer characteristics of a patient undergoing a gene test, an antigen test and a tumor marker test, a substance having a similar function to a tumor-associated antigen (a cancer cell lysate, tumor-specific protein, or tumor-associated peptide) was added to the dendritic cells to enhance a cancer-recognizing ability of the dendritic cells, which is an activation process. For dendritic cell activation, as tumor-associated antigens that can be used in the present invention but not limited thereto, WT1, MUC-1, CA125, MAGE-A3, CEA, NY-ESO1, survinin, Her2, and the telomerase-derived peptide PEP1 were used. As an activation method but not limited to a specific example, the dendritic cells may be cultured with such a tumor-associated antigen. The activation may be performed on immature dendritic cells or mature dendritic cells. In one specific example of the present invention, mononuclear cells were collected from a patient's peripheral blood and cultured, immature dendritic cells differentiated from the mononuclear cells were treated with a peptide to activate and thus differentiated into mature dendritic cells, and then the mature dendritic cells were treated with the same peptide for activation. An amount of the antigen used in the activation may be the same as generally used in the art as follows but is not limited thereto. For example, PEP1 may be used in an amount of 1 to 1000 μg/ml along with the antigens, and 20 μg/ml of WT1, 20 μg/ml of MUC1, 20 μg/ml of CEA, 500 μg/ml of CA125, and 20 μg/ml of HER2 may be used. The dendritic cells (1×10^7) prepared as described above were intradermally injected six times every 14 days.
The following experiment was performed to examine whether dendritic cell immunotherapy leads to an increase in T cell responses to peptides activated by an antigen. A buffy coat layer was separated from the peripheral blood of a patient subjected to the dendritic cell immunotherapy using a ficoll method (centrifugation using a ficoll), and mononuclear cells were obtained therefrom. Following 3 to 4-day culture, an ELISPOT assay was carried out. The ELISPOT assay was performed according to a protocol of an ImmunoSpot kit (Celluluar Technology Limited, USA). […] As peptide stimulants (antigen peptides), Peptivator WT1, Peptivator NY-ESO1 (Miltenyi Biotec., Germany), MUC-1, MAGE-A3, Survivin and PEP1 were added to each well at an optimum concentration and cultured for 48 hours. […]

Regarding “EARPALLTSRLRFIPK (homo sapiens) [PEP1, telomerase-derived peptide composed of 16 amino acids, position [611-626] on telomerase]”, the “Number of spots, IL-4” value by setting is: (Patient 1 (stomach cancer), 7 days after six times of dendritic cell vaccine administration, negative control 17) 335; (Patient 1 (stomach cancer), before dendritic cell vaccine administration, negative control 1) 2; (Patient 2 (lung cancer), 44 days after six times of dendritic cell vaccine administration, negative control 2) 410; (Patient 2 (lung cancer), before dendritic cell vaccine administration, negative control 0) 9; (Patient 3 (pancreatic cancer), 11 days after six times of dendritic cell vaccine administration, negative control 2) 434; (Patient 3 (pancreatic cancer), before dendritic cell vaccine administration, negative control 8) 4. Moreover, the “Number of spots, IL-4” value is, setting by setting: (Patient 4 (breast cancer), 35 days after six times of dendritic cell vaccine administration, 2×10^5 cells/well, negative control 20) 353; (Patient 4 (breast cancer), before dendritic cell vaccine administration, 2×10^5 cells/well, negative control 17) 3. For the same sequence, the “Number of spots, IFN-γ” value is, setting by setting: (Patient 1 (stomach cancer), 7 days after six times of dendritic cell vaccine administration, negative control 27) 567; (Patient 1 (stomach cancer), before dendritic cell vaccine administration, negative control 5) 3; (Patient 2 (lung cancer), 44 days after six times of dendritic cell vaccine administration, negative control 153, *exact number was not obtained) ~332.5*; (Patient 2 (lung cancer), before dendritic cell vaccine administration, negative control 1) 0; (Patient 3 (pancreatic cancer), 11 days after six times of dendritic cell vaccine administration, negative control 14) 632; (Patient 3 (pancreatic cancer), before dendritic cell vaccine administration, negative control 3) 1. In addition, the “Number of spots, IFN-γ” value by setting is: (Patient 4 (breast cancer), 35 days after six times of dendritic cell vaccine administration, 2×10^5 cells/well, negative control 12) 258; (Patient 4 (breast cancer), before dendritic cell vaccine administration, 2×10^5 cells/well, negative control 13) 22. The “ELISPOT spots compared with the negative control” value is “increased” (Patient 1, after the treatment (dendritic cell vaccine six times)); “increased” (Patient 2, after the treatment (dendritic cell vaccine 6 times)); “increased” (Patient 3, after the treatment (dendritic cell vaccine 6 times)); “increased” (Patient 4, after the treatment (dendritic cell vaccine 6 times)).
